From PubChem BioAssay (NCI)
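Each compound was tested at five concentrations against cells in 96-well plates for 48 hours. Abbreviation: GI50, concentration required for 50% inhibition of growth. TGI marks complete inhibition of growth.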

Columns and labels:
Assay in all cases: inhibition of tumour cell growth, NCI panel, 48 h
PC-3 prostate = tested on: PC-3 prostate
T-47D breast = tested on: T-47D breast
UO-31 renal = tested on: UO-31 renal
MOLT-4 leukemia = tested on: MOLT-4 leukemia
HOP-92 NSCLC = tested on: HOP-92 NSCLC
HS 578T breast = tested on: HS 578T breast
SF-539 CNS = tested on: SF-539 CNS
SNB-19 CNS = tested on: SNB-19 CNS
LOX IMVI melanoma = tested on: LOX IMVI melanoma
OVCAR-5 ovarian = tested on: OVCAR-5 ovarian
SK-MEL-5 melanoma = tested on: SK-MEL-5 melanoma
SK-MEL-2 melanoma = tested on: SK-MEL-2 melanoma
SF-295 CNS = tested on: SF-295 CNS
BT-549 breast = tested on: BT-549 breast
SN12C renal = tested on: SN12C renal
NCI-H226 lung = tested on: NCI-H226 lung
HT29 colon = tested on: HT29 colon
A498 renal = tested on: A498 renal
NCI-H522 lung = tested on: NCI-H522 lung
DU-145 prostate = tested on: DU-145 prostate
SNB-75 CNS = tested on: SNB-75 CNS
MDA-MB-435 = tested on: MDA-MB-435
NCI-H460 lung = tested on: NCI-H460 lung
NCI-H23 lung = tested on: NCI-H23 lung
786-0 renal = tested on: 786-0 renal
HCT-15 colon = tested on: HCT-15 colon
COLO 205 colon = tested on: COLO 205 colon
TK-10 renal = tested on: TK-10 renal
OVCAR-3 ovarian = tested on: OVCAR-3 ovarian
OVCAR-4 ovarian = tested on: OVCAR-4 ovarian
KM12 colon = tested on: KM12 colon
K-562 leukemia = tested on: K-562 leukemia
M14 melanoma = tested on: M14 melanoma
SF-268 CNS = tested on: SF-268 CNS
RPMI-8226 leukemia = tested on: RPMI-8226 leukemia
IGROV1 ovarian = tested on: IGROV1 ovarian
SR leukemia = tested on: SR leukemia
U251 CNS = tested on: U251 CNS
HOP-62 NSCLC = tested on: HOP-62 NSCLC
HCC-2998 colon = tested on: HCC-2998 colon
CAKI-1 renal = tested on: CAKI-1 renal
OVCAR-8 ovarian = tested on: OVCAR-8 ovarian
MCF7 breast = tested on: MCF7 breast
SK-MEL-28 melanoma = tested on: SK-MEL-28 melanoma
RXF 393 renal = tested on: RXF 393 renal
MALME-3M melanoma = tested on: MALME-3M melanoma
EKVX NSCLC = tested on: EKVX NSCLC
HCT-116 colon = tested on: HCT-116 colon
MDA-MB-231 breast = tested on: MDA-MB-231 breast
NCI/ADR-RES ovarian = tested on: NCI/ADR-RES ovarian
UACC-62 melanoma = tested on: UACC-62 melanoma
UACC-257 melanoma = tested on: UACC-257 melanoma
ACHN renal = tested on: ACHN renal
HL-60(TB) leukemia = tested on: HL-60(TB) leukemia
SW-620 colon = tested on: SW-620 colon
CCRF-CEM leukemia = tested on: CCRF-CEM leukemia
A549 NSCLC = tested on: A549 NSCLC

CCN(CC)CCCNc1nc2ccccc2c2c(=O)c3cc(Cl)ccc3sc12
GI50 (PC-3 prostate): 3.41 µM | TGI (PC-3 prostate): 16.7 µM | GI50 (T-47D breast): 3.85 µM | TGI (T-47D breast): 27.7 µM | GI50 (UO-31 renal): 1.79 µM | TGI (UO-31 renal): 9.97 µM | GI50 (MOLT-4 leukemia): 2.22 µM | TGI (MOLT-4 leukemia): 4.92 µM | GI50 (HOP-92 NSCLC): 1.57 µM | TGI (HOP-92 NSCLC): 6.58 µM | GI50 (HS 578T breast): 3.13 µM | TGI (HS 578T breast): 14.8 µM | GI50 (SF-539 CNS): 1.73 µM | TGI (SF-539 CNS): 3.35 µM | GI50 (SNB-19 CNS): 6.81 µM | TGI (SNB-19 CNS): 20.4 µM | GI50 (LOX IMVI melanoma): 1.65 µM | TGI (LOX IMVI melanoma): 3.08 µM | GI50 (OVCAR-5 ovarian): 2.25 µM | TGI (OVCAR-5 ovarian): 6.29 µM | GI50 (SK-MEL-5 melanoma): 3.11 µM | TGI (SK-MEL-5 melanoma): 11.3 µM | GI50 (SK-MEL-2 melanoma): 10.4 µM | TGI (SK-MEL-2 melanoma): 27.5 µM | GI50 (SF-295 CNS): 7.96 µM | TGI (SF-295 CNS): 21.9 µM | GI50 (BT-549 breast): 15.8 µM | TGI (BT-549 breast): 30.4 µM | GI50 (SN12C renal): 3.68 µM | TGI (SN12C renal): 15.4 µM | GI50 (NCI-H226 lung): 10.7 µM | TGI (NCI-H226 lung): 25.1 µM | GI50 (HT29 colon): 1.9 µM | TGI (HT29 colon): 3.98 µM | GI50 (A498 renal): 8.42 µM | TGI (A498 renal): 21.4 µM | GI50 (NCI-H522 lung): 2.02 µM | TGI (NCI-H522 lung): 4.41 µM | GI50 (DU-145 prostate): 2.01 µM | TGI (DU-145 prostate): 4.13 µM | GI50 (SNB-75 CNS): 4.36 µM | TGI (SNB-75 CNS): 18.3 µM | GI50 (MDA-MB-435): 1.89 µM | TGI (MDA-MB-435): 3.65 µM | GI50 (NCI-H460 lung): 1.7 µM | TGI (NCI-H460 lung): 3.36 µM | GI50 (NCI-H23 lung): 3.69 µM | TGI (NCI-H23 lung): 15.1 µM | GI50 (786-0 renal): 1.69 µM | TGI (786-0 renal): 3.27 µM | GI50 (HCT-15 colon): 1.61 µM | TGI (HCT-15 colon): 3.14 µM | GI50 (COLO 205 colon): 2.33 µM | TGI (COLO 205 colon): 5.58 µM | GI50 (TK-10 renal): 2.15 µM | TGI (TK-10 renal): 3.97 µM | GI50 (OVCAR-3 ovarian): 1.92 µM | TGI (OVCAR-3 ovarian): 4.15 µM | GI50 (OVCAR-4 ovarian): 4.68 µM | TGI (OVCAR-4 ovarian): 22.7 µM | GI50 (KM12 colon): 1.79 µM | TGI (KM12 colon): 3.24 µM | GI50 (K-562 leukemia): 2.29 µM | TGI (K-562 leukemia): 5.51 µM | GI50 (M14 melanoma): 1.94 µM | TGI (M14 melanoma): 3.81 µM | GI50 (SF-268 CNS): 3.26 µM | TGI (SF-268 CNS): 14.3 µM | GI50 (RPMI-8226 leukemia): 3.2 µM | TGI (RPMI-8226 leukemia): 10.1 µM | GI50 (IGROV1 ovarian): 1.36 µM | TGI (IGROV1 ovarian): 3.1 µM | GI50 (SR leukemia): 3.75 µM | TGI (SR leukemia): > 100 µM | GI50 (U251 CNS): 2.04 µM | TGI (U251 CNS): 4.92 µM | GI50 (HOP-62 NSCLC): 3.05 µM | TGI (HOP-62 NSCLC): 15.8 µM | GI50 (HCC-2998 colon): 1.91 µM | TGI (HCC-2998 colon): 4.01 µM | GI50 (CAKI-1 renal): 4.4 µM | TGI (CAKI-1 renal): 17.1 µM | GI50 (OVCAR-8 ovarian): 3.26 µM | TGI (OVCAR-8 ovarian): 15.7 µM | GI50 (MCF7 breast): 1.32 µM | TGI (MCF7 breast): 2.91 µM | GI50 (SK-MEL-28 melanoma): 1.81 µM | TGI (SK-MEL-28 melanoma): 3.34 µM | GI50 (RXF 393 renal): 2.68 µM | TGI (RXF 393 renal): 10.8 µM | GI50 (MALME-3M melanoma): 1.63 µM | TGI (MALME-3M melanoma): 3.26 µM | GI50 (EKVX NSCLC): 3.74 µM | TGI (EKVX NSCLC): 17.3 µM | GI50 (HCT-116 colon): 1.73 µM | TGI (HCT-116 colon): 3.22 µM | GI50 (MDA-MB-231 breast): 1.45 µM | TGI (MDA-MB-231 breast): 3.27 µM | GI50 (NCI/ADR-RES ovarian): 2.04 µM | TGI (NCI/ADR-RES ovarian): 4.99 µM | GI50 (UACC-62 melanoma): 1.76 µM | TGI (UACC-62 melanoma): 3.39 µM | GI50 (UACC-257 melanoma): 5.43 µM | TGI (UACC-257 melanoma): 22.5 µM | GI50 (ACHN renal): 1.63 µM | TGI (ACHN renal): 3.22 µM | GI50 (HL-60(TB) leukemia): 5.03 µM | TGI (HL-60(TB) leukemia): 23.2 µM | GI50 (SW-620 colon): 1.77 µM | TGI (SW-620 colon): 3.41 µM | GI50 (CCRF-CEM leukemia): 2.81 µM | TGI (CCRF-CEM leukemia): 8.68 µM | GI50 (A549 NSCLC): 2.02 µM | TGI (A549 NSCLC): 4.52 µM
